Laboratory results reported in patent publication US20100056519A1, “COMPOSITION AND METHOD FOR REDUCING PLATELET ACTIVATION AND FOR THE TREATMENT OF THROMBOTIC EVENTS” (priority 2008, published 2010).

Columns and labels:
Assay type in all cases: cell-based, human
[1] = test system: Thrombospondin-Receptor (CD36); assay: Unstimulated whole blood flow cytometry, thrombospondin receptor; conditions: unstimulated, Mean ± SD
Description: (§1) The methodology employed was conventional aggregation induced by 5 μM ADP, 1 μg/ml collagen, 10 μM TRAP, whole blood aggregation with 1 μg/ml collagen, Ultegra, and PFA-100 Analyzers, expression of 14 intact, and TRAP-stimulated major receptors by whole blood flow cytometry were utilized to assess platelet activity after preincubation with escalating concentrations of E5555 (20 ng/ml, 50 ng/ml, and 100 ng/ml). The experiments were performed in healthy volunteers, CAD patients treated with ASA, and CAD patients treated with ASA and clopidogrel combination (n=10, for each group).
(§2) An Informed Consent was obtained from all volunteers. Drug users were excluded from data analysis. The study was approved by Quorum Institutional Review Board. All subjects underwent blood sampling after at least 30 minutes of rest and two or more hours of fasting. Blood (28 ml) was drawn between 8 and 10 a.m. in order to avoid any diurnal influence and sampled from an antecubital vein using a 21-gauge butterfly needle containing 3.2% sodium citrate (1:9 volume) after having discarded the first 1.5 ml of free running blood. Four Vacutainer tubes (7.0 ml) were collected for a total of 28 ml of whole blood-citrate mixture from each study participant. Chronologically, blood samples were delivered to the core laboratory facility within 45 minutes after drawing. Then all tubes of blood-citrate mixture were pooled. One portion of pooled blood (5 ml) was kept as an internal control and pretreated with the vehicle. The remaining blood (23 ml) was used for the in vitro exposure to E5555 at concentrations of 20 ng/ml, 50 ng/ml, and 100 ng/ml. […] The platelet aggregation studies, Rapid Analyzers measures, and flow cytometry preparations were initiated within no more than 110 minutes following the blood draw, incubation with the drug, and preparation of the samples.
(§3) Formation of platelet-leukocyte aggregates was assessed by dual labeling with pan-platelet marker (CD151), and then with CD14, the macrophage receptor for endotoxin lipopolysaccharides (PharMingen, and Coulter, San Diego, Calif., USA). The tubes were then covered with aluminum foil and incubated at 37° C. for 40 minutes with gentle rotation. After incubation, samples were immediately analyzed on a Becton Dickinson FACScan flow cytometer. The instrument was set up to measure forward light scatter, and FITC fluorescence. All parameters were collected using four-decade logarithmic amplification. The data was retrieved in list mode files and then analyzed. P selectin was expressed as percent positive cells. Other antigens were expressed as log mean fluorescence intensity.

GPIIb antigen (CD41) = assay: TRAP-stimulated whole blood flow cytometry, GPIIb antigen; conditions: Mean ± SD
Description: as §1, §2, §3
(§4) For flow cytometry (TRAP-stimulated) all of the above flow cytometry experiments were identically repeated utilizing prestimulation with 10 μmol/L TRAP for 5 minutes at 37° C. To determine statistics, a Paired Sign Test was used to define significance of differences between vehicle and E5555-treated groups. The Mann-Whitney U test was used to analyze nonparametric data. Normally distributed data were expressed as mean±standard error (m±SE), and skewed data as median (range). All P-values were two sided. All analysis was performed using the SPSS v9.0 program (SPSS Inc., Chicago, Ill.).

P-selectin (CD62p) = assay: TRAP-stimulated whole blood flow cytometry, P-selectin; conditions: Mean ± SD
Description: as §1, §2, §3, §4

PMA (CD14 + CD151) = assay: TRAP-stimulated whole blood flow cytometry, platelet-monocyte aggregates; conditions: Mean ± SD
Description: as §1, §2, §3, §4

WEDE15 = assay: TRAP-stimulated whole blood flow cytometry, WEDE15; conditions: Mean ± SD
Description: as §1, §2, §3, §4

[2] = E5555 50 ng/ml, Patients (ASA + C)
[3] = E5555 100 ng/ml, Patients (ASA + C)
[4] = E5555 100 ng/ml, Patients (ASA)
[5] = E5555 20 ng/ml, Patients (ASA + C)

Br.CCOc1cc2c(c(F)c1OCC)C(=N)N(CC(=O)c1cc(N3CCOCC3)c(OC)c(C(C)(C)C)c1)C2 [E5555, 1-(3-tert-butyl-4-methoxy-5-morpholinophenyl)-2-(5,6-diethoxy-7-fluoro-1-imino-1,3-dihydro-2H-isoindol-2-yl)ethanone hydrobromide]
Thrombospondin-Receptor (CD36), Mean Fluorescence Intensity ([1]; E5555 20 ng/ml, Volunteers): 8.4 ± 1.1 MFI | Thrombospondin-Receptor (CD36), Mean Fluorescence Intensity [1, 2]: 7.0 ± 1.0 MFI | Thrombospondin-Receptor (CD36), Mean Fluorescence Intensity ([1]; E5555 50 ng/ml, Patients (ASA)): 7.0 ± 0.7 MFI | Thrombospondin-Receptor (CD36), Mean Fluorescence Intensity ([1]; E5555 50 ng/ml, Volunteers): 8.2 ± 0.8 MFI | Thrombospondin-Receptor (CD36), Mean Fluorescence Intensity [1, 3]: 7.1 ± 1.2 MFI | Thrombospondin-Receptor (CD36), Mean Fluorescence Intensity [1, 4]: 7.4 ± 0.9 MFI | Thrombospondin-Receptor (CD36), Mean Fluorescence Intensity ([1]; E5555 100 ng/ml, Volunteers): 8.4 ± 1.0 MFI | GPIIb antigen (CD41), Mean Fluorescence Intensity (GPIIb antigen (CD41); [5]): 328 ± 41 MFI | GPIIb antigen (CD41), Mean Fluorescence Intensity (GPIIb antigen (CD41); E5555 20 ng/ml, Patients (ASA)): 471 ± 38 MFI | GPIIb antigen (CD41), Mean Fluorescence Intensity (GPIIb antigen (CD41); E5555 20 ng/ml, Volunteers): 504 ± 18 MFI | GPIIb antigen (CD41), Mean Fluorescence Intensity (GPIIb antigen (CD41); [2]): 209 ± 30 MFI | GPIIb antigen (CD41), Mean Fluorescence Intensity (GPIIb antigen (CD41); E5555 50 ng/ml, Patients (ASA)): 376 ± 35 MFI | GPIIb antigen (CD41), Mean Fluorescence Intensity (GPIIb antigen (CD41); E5555 50 ng/ml, Volunteers): 390 ± 31 MFI | GPIIb antigen (CD41), Mean Fluorescence Intensity (GPIIb antigen (CD41); [3]): 176 ± 19 MFI | GPIIb antigen (CD41), Mean Fluorescence Intensity (GPIIb antigen (CD41); [4]): 304 ± 40 MFI | GPIIb antigen (CD41), Mean Fluorescence Intensity (GPIIb antigen (CD41); E5555 100 ng/ml, Volunteers): 364 ± 37 MFI | P-selectin (CD62p), % positive cells (P-selectin (CD62p); [5]): 11 ± 5 % positive cells | P-selectin (CD62p), % positive cells (P-selectin (CD62p); E5555 20 ng/ml, Patients (ASA)): 22 ± 6 % positive cells | P-selectin (CD62p), % positive cells (P-selectin (CD62p); E5555 20 ng/ml, Volunteers): 31 ± 8 % positive cells | P-selectin (CD62p), % positive cells (P-selectin (CD62p); [2]): 8 ± 3 % positive cells | P-selectin (CD62p), % positive cells (P-selectin (CD62p); E5555 50 ng/ml, Patients (ASA)): 15 ± 4 % positive cells | P-selectin (CD62p), % positive cells (P-selectin (CD62p); E5555 50 ng/ml, Volunteers): 14 ± 3 % positive cells | P-selectin (CD62p), % positive cells (P-selectin (CD62p); [3]): 3 ± 1 % positive cells | P-selectin (CD62p), % positive cells (P-selectin (CD62p); [4]): 8 ± 4 % positive cells | P-selectin (CD62p), % positive cells (P-selectin (CD62p); E5555 100 ng/ml, Volunteers): 11 ± 3 % positive cells | PMA (CD14 + CD151), Mean Fluorescence Intensity (PMA (CD14 + CD151); [5]): 100 ± 21 MFI | PMA (CD14 + CD151), Mean Fluorescence Intensity (PMA (CD14 + CD151); E5555 20 ng/ml, Patients (ASA)): 109 ± 23 MFI | PMA (CD14 + CD151), Mean Fluorescence Intensity (PMA (CD14 + CD151); E5555 20 ng/ml, Volunteers): 133 ± 19 MFI | PMA (CD14 + CD151), Mean Fluorescence Intensity (PMA (CD14 + CD151); [2]): 77 ± 23 MFI | PMA (CD14 + CD151), Mean Fluorescence Intensity (PMA (CD14 + CD151); E5555 50 ng/ml, Patients (ASA)): 82 ± 10 MFI | PMA (CD14 + CD151), Mean Fluorescence Intensity (PMA (CD14 + CD151); E5555 50 ng/ml, Volunteers): 118 ± 14 MFI | PMA (CD14 + CD151), Mean Fluorescence Intensity (PMA (CD14 + CD151); [3]): 108 ± 19 MFI | PMA (CD14 + CD151), Mean Fluorescence Intensity (PMA (CD14 + CD151); [4]): 116 ± 23 MFI | PMA (CD14 + CD151), Mean Fluorescence Intensity (PMA (CD14 + CD151); E5555 100 ng/ml, Volunteers): 125 ± 20 MFI | WEDE15, Mean Fluorescence Intensity (WEDE15; [5]): 33 ± 5 MFI | WEDE15, Mean Fluorescence Intensity (WEDE15; E5555 20 ng/ml, Patients (ASA)): 38 ± 6 MFI | WEDE15, Mean Fluorescence Intensity (WEDE15; E5555 20 ng/ml, Volunteers): 40 ± 7 MFI | WEDE15, Mean Fluorescence Intensity (WEDE15; [2]): 34 ± 6 MFI | WEDE15, Mean Fluorescence Intensity (WEDE15; E5555 50 ng/ml, Patients (ASA)): 39 ± 6 MFI | WEDE15, Mean Fluorescence Intensity (WEDE15; E5555 50 ng/ml, Volunteers): 40 ± 5 MFI | WEDE15, Mean Fluorescence Intensity (WEDE15; [3]): 33 ± 6 MFI | WEDE15, Mean Fluorescence Intensity (WEDE15; [4]): 40 ± 8 MFI | WEDE15, Mean Fluorescence Intensity (WEDE15; E5555 100 ng/ml, Volunteers): 40 ± 8 MFI
